Experimental data reported in article PMC10002956, “Tumour suppressor PTEN activity is differentially inducible by myo‐inositol phosphates” (Journal of Cellular and Molecular Medicine, 2023).

Legend:
[1] = target: T1, PTEN (phosphatase and tensin homologue deleted on Chromosome 10) (Homo sapiens, UniProt P60484); test: malachite green phosphate release from PIP3; format: biochemical; conditions: PIP3 200 μM, PTEN 50 μM, IHP 2.5-40 mM; Tris-HCl pH 7.5, 10 mM DTT, 37 °C
T1 construct: commercial recombinant PTEN; immobilised on CM5 chip for SPR

[2] = target: T1, PTEN (phosphatase and tensin homologue deleted on Chromosome 10); test: SPR, PTEN immobilised on CM5 chip, Biacore T200, […] Langmuir with mass transport; format: binding; conditions: 25 °C, HBS; PIP3 25-400 μM; acyl chains of PIP3 not told

T1 sequence (P60484 2-403): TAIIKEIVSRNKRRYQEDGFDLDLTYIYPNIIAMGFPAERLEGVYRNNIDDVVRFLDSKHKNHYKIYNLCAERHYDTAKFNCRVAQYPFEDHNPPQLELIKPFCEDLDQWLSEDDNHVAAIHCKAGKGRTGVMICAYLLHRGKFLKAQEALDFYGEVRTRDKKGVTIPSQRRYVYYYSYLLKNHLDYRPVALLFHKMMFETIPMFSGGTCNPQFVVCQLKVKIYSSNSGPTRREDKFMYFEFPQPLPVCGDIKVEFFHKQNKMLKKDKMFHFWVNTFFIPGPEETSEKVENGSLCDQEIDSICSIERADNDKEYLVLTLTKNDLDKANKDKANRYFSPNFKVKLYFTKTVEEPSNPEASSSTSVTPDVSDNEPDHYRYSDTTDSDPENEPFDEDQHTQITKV

| K D [2] | Compound | malachite green phosphate release from PIP3 [1] |
| --- | --- | --- |
|  | O=P(O)(O)O[C@H]1[C@H](OP(=O)(O)O)[C@@H](OP(=O)(O)O)[C@H](OP(=O)(O)O)[C@@H](OP(=O)(O)O)[C@H]1OP(=O)(O)O [IHP] | IHP inhibits hydrolysis in a concentration‐dependent manner |
| ~ 2.5 micromoles | PIP3 |  |
